Experimental data taken from a melting point compilation (Tetko et al.; mined from patent text by program, amines drawn as free bases though some values may be those of a salt).

Row | SMILES | melting point [°C]
1 | N#CC(C#N)=Cc1ccccc1F | 117 to 118
2 | O=C(C=CCc1c[nH]c2ccccc12)NC(C(=O)OCc1ccccc1)C(=O)OCc1ccccc1 | 162 to 163
3 | CCCCCCC(C)(C)c1cc(OC)c(C2=C[C@@H]3CC[C@@]2(C)C3(C)C)c(OC)c1 | 35 to 37
4 | Cc1nn(C)c(C2=NCCN2)c1[N+](=O)[O-] | 143 to 145
5 | OCC(CO)C1c2ccccc2-c2ccccc21 | 101
6 | COC(=O)/C=C/c1ccc(OCc2nc(-c3ccccc3)oc2C)nc1 | 116 to 117
7 | C[C@H]1[C@@H](C#N)CCN1c1ccc(C#N)c2ccccc12 | 143 to 145
8 | CN(C)c1ccc(N(c2ccc(N(C)C)cc2)C2(c3ccc(N(C)C)cc3)OC(=O)c3cc(N(C)C)ccc32)cc1 (stereo not given) | 86 to 92
9 | CCCC(C(N)=O)C(=O)O (stereo not given) | 137
10 | CCCS(=O)(=O)c1ccc(NS(=O)(=O)c2cccs2)c2[nH]c(C3=NCCS3)cc12 | 101 to 102
11 | CC(C)(O)Cc1c2c(nn1CCO)c(N)nc1ccccc12 | 196 to 198
12 | OC(CCSC(=S)Nc1ccc(Cl)cn1)c1ccccc1 (stereo not given) | 91
13 | S=C(NC1CCCCC1)N1CCc2[nH]cnc2C1 | 183
14 | CN(C)S(=O)(=O)N[C@@H](Cc1ccc(Nc2nccc3cnccc23)cc1)C(=O)O | 211
15 | Cc1ccc(-c2cn(C)c(-c3nc(-c4ccc(C)s4)cn3C)n2)s1 | 220 to 228
16 | Cc1cc(C(O)(c2ccccc2)c2ccccc2)on1 | 116 to 118
17 | CCCNC(=O)c1nc(C)ccc1C(=O)Nc1cccc2ccccc12 | 175 to 178
18 | CCOCC(=NNc1ccc(C(F)(F)F)cc1)C(=O)O | 96 to 99

Row | SMILES | melting point [°C]
19 | CCCc1nc2c(N)nc3cc(Br)ccc3c2s1 | 160 to 163
20 | O=C(Nc1cccc(C(F)(F)F)c1)OCC1(COC(=O)Nc2cccc(C(F)(F)F)c2)CSc2ccccc2C1=O | 58 to 63
21 | CCCCCCCCOc1ccc(C(N)=O)c(O)c1 | 123 to 124
22 | COc1ccc2nc(-c3ccc(C)c(C)c3)n(-c3ccccc3)c2c1 | 251
23 | CCOC(=O)C(NC(=O)OCc1ccccc1)C(=O)OCC | 36.5 to 37
24 | CCc1nn2c(N)cc(N3CCN(C)CC3)nc2c1S(=O)(=O)c1ccccc1 | > 250
25 | CCOC(=O)c1nccn1CCCCc1ccc(OCc2coc(/C=C/c3ccccc3)n2)cc1 | 96 to 97
26 | O=C(NCc1ccc([N+](=O)[O-])cc1)N(c1ccccc1)c1ccccc1 | 137 to 138
27 | CSCn1c(C(F)(F)F)nc2c(Br)cc(C(F)(F)F)cc21 | 56 to 60
28 | CC(C)(C)CC(=O)N[C@H]1CC[C@H](CCN2CCN(c3nccc4c3CCO4)CC2)CC1 | 192
29 | c1ccc(-c2cnc(N3CCc4c([nH]c5ccccc45)C3C3Cc4ccccc4O3)nc2)nc1 (stereo not given) | 170 to 171
30 | O=S(=O)(c1ccccc1)n1cc(I)c2c(OCc3ccccc3)ccnc21 | 177 to 179
31 | CC1(CN2CCN(c3nc4ccccc4o3)CC2)Cn2cc([N+](=O)[O-])nc2O1 (stereo not given) | 228 to 230
32 | Oc1cc(OCCCCCCCCCCOc2ccc(C(=S)c3ccc(-c4ccccc4)cc3)c(O)c2)ccc1C(=S)c1ccc(-c2ccccc2)cc1 | 125 to 127
33 | CN(C)CCCOc1ccc(-c2n[nH]c3ncccc23)cc1 | 176 to 177
34 | CCc1ccc(C(O)COc2ccc(C=O)cc2)nc1 (stereo not given) | 80
35 | ON=Cc1ccc(Cl)c(Cl)c1OCc1ccccc1 | 64 to 69

Continued, values first:

Row | melting point [°C] | SMILES
36 | 156 | COc1ccc(CNc2nc(CCCCC(=O)O)nc3sc(C)c(C)c23)cc1Cl
37 | 260 | O=c1[nH][nH]c(=O)n1-c1cc(Cl)cc(Cl)c1
38 | 211 to 213 | CCCCSCC(=O)c1ccc2[nH]c(=O)[nH]c2c1
39 | 159 to 161 | COc1cc(C(=O)O)c(N)cc1OCc1ccccc1
40 | 165 to 168 | CC(C)c1cccc(C(C)C)c1NC(=O)NCC1(c2cc(C(F)(F)F)cc(C(F)(F)F)c2)CCCC1
41 | 76 to 77 | CC(=O)OCc1cc(C)cc(Oc2nc(Cl)nc(Cl)c2C(C)C)c1
42 | 49 to 50 | CCCC(=O)COS(=O)(=O)c1c(C)cc(C)c(C)c1C
43 | 248 to 251 | COC(=O)c1ccc2c(c1)CN(c1c(F)cc3c(=O)c(C(=O)O)cn(-c4ccc(F)cc4F)c3c1F)C2
44 | 134 | Cc1ccc(C)c2c1C[C@@H](O)[C@@H]2Oc1cc(C(=O)N(C)C)cc2c1nc(C)n2C (relative stereo)
45 | 127 to 130 | O=C1Nc2cc(Cl)ccc2C1(Br)Br
46 | 136 to 138 | CC1=C(C(=O)OC(C)C)C(c2cccc([N+](=O)[O-])c2)C(S(=O)(=O)N(C)C)=C(C)N1 (stereo not given)
47 | 228 to 229 | CCN1c2ncc(C#Cc3ccccc3)cc2C(=O)N(C)c2cccnc21
48 | 178 to 181 | O=C(c1ccc([N+](=O)[O-])cc1)N1Cc2ccccc2C(c2ccccc2Cl)c2ccccc21 (stereo not given)
49 | 217 to 219 | Cc1ccc2c(n1)Nc1cc(C)c(C)cc1N(C)C2=O
50 | 92 to 94 | N#Cc1ccnc(CO)c1
51 | 126 to 128 | Cc1nc(-c2ccc(C#N)cc2)sc1C(=O)N[C@H](C)[C@](O)(Cn1ccnc1)c1ccc(F)cc1F
52 | 143 to 146 | COc1ccc(C(=O)c2cc3cc(Br)ccc3o2)cc1
53 | 137 to 139 | COC(=O)CCc1nc(CCc2ccc(C(=O)OC)cc2)ccc1O

Row | melting point [°C] | SMILES
54 | 77 | COC(=O)CCCCc1cc2cc(C(F)(F)F)ccc2n1S(=O)(=O)c1cccc(C(C)(C)C)c1
55 | 225 to 227 | Cc1cc(C)c2c(c1)c(-c1ccccc1Cl)c(NC(=O)Nc1ccc(F)cc1F)c(=O)n2C
56 | 160 to 162 | CC(C)c1cc(Cl)cc(C(C)C)c1NC(=O)NS(=O)(=O)c1cccc(C(C)(C)O)c1
57 | 143 to 145 | CC(C)OC(=O)c1cc(-n2c(=O)[nH]cc(C#N)c2=O)c(F)cc1Cl
58 | 98 to 102 | CCC(CC)Nc1cc(C)nc(Oc2c(C)cc(C)cc2C)c1C(=O)OC
59 | > 300 | O=C1CC[C@@H](C(=O)Nc2ccc(-c3ncc(C(=O)O)c(O)n3)cc2)N1
60 | 167 to 169 | CC(C)C(NS(=O)(=O)c1ccc2c3c(oc2c1)CCCC3)C(=O)O (stereo not given)
61 | 90.3 to 94.8 | CCc1cccc2c(-c3nc(OC)cc(OC)n3)c(C)[nH]c12
62 | 148 to 151 | COC[C@](C#N)(C(=O)OC)[C@H](c1ccccc1OC)c1cccc2ccccc12
63 | 103 to 104 | OC1(c2ccc(Cl)cc2)c2cc(Cl)c(Cl)cc2CCC1Br (stereo not given)
64 | 260 | NC(=O)c1cc(Cl)c(NC(=O)CCl)c(Cl)c1
65 | 160 to 168 | COc1nc(C)nc(NC(=O)NS(=O)(=O)c2cccc3c2OC(C)(C)O3)n1
66 | 169 to 170 | CC(C)Cn1c(C(F)(F)F)nc2cc(F)c(-n3c(=O)cc(C(F)(F)F)n(C)c3=O)cc21
67 | 75 to 78 | CCc1nn(-c2c(Cl)cc(C(F)(F)F)cc2Cl)c(Cl)c1-c1nc(C#N)c(C#N)[nH]1
68 | 249 to 251 | O=C1Nc2cc(F)ccc2C12COc1cc3c(cc12)CCO3 (stereo not given)
69 | 199 to 201 | O=C(c1cccs1)c1cnn2c(-c3cccc([N+](=O)[O-])c3)ccnc12
70 | 315 | O=C(O)N1CCN2c3sc4c(c3CN(c3ccccc3Cl)CC12)CC=C4 (stereo not given)
